US10517889B2, “Modulators of SMAD7 expression” (Ionis Pharmaceuticals, Inc., priority 2017, dated 2019)
Strand notation (5' to 3'): a small letter for the sugar, then the base; units joined by * are phosphorothioate-linked, units joined directly phosphodiester-linked; [ ] holds rarer units or linkages, { } end groups; capitals alone tell only the bases. k = constrained ethyl (cEt); [5mC] = 5-methylcytosine; d = 2'-deoxy (DNA)

The substances below were run on human SMAD7 mRNA (assay: Antisense inhibition of human SMAD7 mRNA expression in Hep3B cells by 3-10-3 cEt gapmers, 10,000 nM, electroporation (Example 2)). Conditions: Hep3B cells, 10,000 nM antisense oligonucleotide, electroporation, approximately 24 hours, RT-PCR primer probe set RTS5062, relative to untreated control cells.
Assay type: cell-based
How it was run: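 Hep3B, 20,000 cells/well; electroporation, 10,000 nM ASO; ~24 h. Readout: SMAD7 mRNA by qRT-PCR (RTS5062), RIBOGREEN-normalised; % inhibition vs untreated.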

Substance	% Inhibition [%]
799915 (antisense kG*k[5mC]*kT*dG*dA*d[5mC]*dG*d[5mC]*dG*dG*d[5mC]*dT*dT*k[5mC]*k[5mC]*kT) [compound 799915]	52
800032 (kG*kA*kA*dT*dT*d[5mC]*d[5mC]*d[5mC]*d[5mC]*dG*d[5mC]*d[5mC]*dA*kT*kT*kT; antisense) [compound 800032]	0
800076 (antisense k[5mC]*kG*k[5mC]*dT*dT*d[5mC]*d[5mC]*d[5mC]*dT*dA*d[5mC]*dA*d[5mC]*kA*kG*kT) [compound 800076]	25
798877 (k[5mC]*kA*kT*dT*dG*dG*dG*d[5mC]*d[5mC]*dG*d[5mC]*dT*dG*k[5mC]*kA*kG; antisense) [compound 798877]	24
800013 (kA*kA*kA*dG*dG*dA*dG*dA*dG*dG*dA*d[5mC]*dT*kT*k[5mC]*kA; antisense) [compound 800013]	56

Same assay, conditions: Hep3B cells, electroporation with 10,000 nM antisense oligonucleotide, approximately 24 hours, RTS5062, percent inhibition of SMAD7 mRNA relative to untreated control cells

Substance	% Inhibition [%]
799648 (antisense kA*kT*kG*dA*dA*dA*dG*d[5mC]*d[5mC]*d[5mC]*d[5mC]*d[5mC]*dA*kG*kA*k[5mC]) [compound 799648]	9

Same assay, conditions: Hep3B cells, electroporation with 10,000 nM antisense oligonucleotide, approximately 24 hours, SMAD7 mRNA by RT-PCR (RTS5062), relative to untreated control cells

Substance	% Inhibition [%]
830191 (antisense k[5mC]*kT*kA*dA*dT*d[5mC]*dA*dG*dA*dT*dG*d[5mC]*d[5mC]*kT*kG*k[5mC]) [compound 830191]	47
798782 (kT*kG*k[5mC]*dA*dG*d[5mC]*dA*d[5mC]*dA*d[5mC]*d[5mC]*dA*dG*k[5mC]*kT*k[5mC]; antisense) [compound 798782]	51
798905 (kG*kG*k[5mC]*dT*dG*dT*dT*dG*dA*dA*dG*dA*dT*kG*kA*k[5mC]; antisense) [compound 798905]	35

Same assay, conditions: Hep3B cells, electroporation with 10,000 nM antisense oligonucleotide, approximately 24 hours, primer probe set RTS5062, relative to untreated control cells

Substance	% inhibition of SMAD7 mRNA expression [%]
798969 (antisense kT*kG*k[5mC]*d[5mC]*dG*dA*dT*d[5mC]*dA*dT*dA*d[5mC]*d[5mC]*kT*kG*k[5mC]) [compound 798969]	48
799012 (kA*kT*kA*dA*dG*dA*dG*dA*d[5mC]*dA*d[5mC]*dA*dA*kA*kA*k[5mC]; antisense) [compound 799012]	43
799091 (antisense kA*k[5mC]*kT*dG*dG*dG*dT*dG*dA*dG*d[5mC]*dA*dA*kT*kA*k[5mC]) [compound 799091]	42

Same assay, conditions: Hep3B cells, electroporation, 10,000 nM antisense oligonucleotide, approximately 24 hours, RTS5062, relative to untreated control cells

Substance	% inhibition of SMAD7 mRNA expression [%]
799819 (antisense k[5mC]*k[5mC]*k[5mC]*d[5mC]*dA*d[5mC]*dT*dG*dA*dG*d[5mC]*dA*dG*kG*kA*kG) [compound 799819]	26
799595 (k[5mC]*kT*k[5mC]*dT*dG*dA*dA*d[5mC]*dG*dG*dA*dA*dA*kG*kA*kA; antisense) [compound 799595]	35
799281 (antisense k[5mC]*kA*k[5mC]*dA*dG*d[5mC]*dA*d[5mC]*d[5mC]*dT*dT*dG*dT*k[5mC]*kA*k[5mC]) [compound 799281]	25
799811 (antisense k[5mC]*kT*kG*d[5mC]*d[5mC]*dA*dA*d[5mC]*dG*dG*d[5mC]*dA*d[5mC]*kA*kG*kT) [compound 799811]	0

Same assay, conditions: SMAD7 mRNA, Hep3B cells, 10,000 nM antisense oligonucleotide, electroporation, approximately 24 hours, primer probe set RTS5062, relative to untreated control cells

Substance	% Inhibition [%]
829786 (antisense kG*kA*kA*dT*dG*d[5mC]*d[5mC]*dT*dG*dA*dG*dA*dT*k[5mC]*k[5mC]*kG) [compound 829786]	56
790659 (kT*kG*k[5mC]*d[5mC]*dA*dG*dT*d[5mC]*dT*d[5mC]*dA*dA*dA*kT*kG*kG; antisense) [compound 790659]	27
790611 (kG*k[5mC]*kT*dT*dA*dT*dG*dT*dT*dA*dA*dA*dG*kT*k[5mC]*kT; antisense) [compound 790611]	59

Same assay, conditions: SMAD7 mRNA, Hep3B cells, electroporation with 10,000 nM antisense oligonucleotide, approximately 24 hours, primer probe set RTS5062, relative to untreated control cells

Substance	% Inhibition [%]
830007 (antisense k[5mC]*kT*kA*d[5mC]*dT*d[5mC]*dA*d[5mC]*d[5mC]*dA*dG*dT*dT*kG*kG*kT) [compound 830007]	0
829836 (k[5mC]*k[5mC]*kA*dG*dT*dG*dT*dG*dA*d[5mC]*d[5mC]*dG*dA*kT*k[5mC]*k[5mC]; antisense) [compound 829836]	48
